Experiments:
SARS-CoV-2 3CLpro = SARS-CoV-2 3CLpro (Severe acute respiratory syndrome coronavirus 2, UniProt P0DTD1); assay: biochemical
HCoV-229E 3CLpro = HCoV-229E 3CLpro (Human coronavirus 229E, UniProt P0C6X1); assay: HCoV-229E 3CLpro inhibition assay (FRET); format: biochemical
MERS-CoV 3CLpro = MERS-CoV 3CLpro (Middle East respiratory syndrome-related coronavirus, UniProt K9N7C7); assay: biochemical
SARS-CoV 3CLpro = SARS-CoV 3CLpro (Severe acute respiratory syndrome coronavirus, UniProt P0C6X7); assay: biochemical

Chain of MERS-CoV 3CLpro (K9N7C7 3248-3553): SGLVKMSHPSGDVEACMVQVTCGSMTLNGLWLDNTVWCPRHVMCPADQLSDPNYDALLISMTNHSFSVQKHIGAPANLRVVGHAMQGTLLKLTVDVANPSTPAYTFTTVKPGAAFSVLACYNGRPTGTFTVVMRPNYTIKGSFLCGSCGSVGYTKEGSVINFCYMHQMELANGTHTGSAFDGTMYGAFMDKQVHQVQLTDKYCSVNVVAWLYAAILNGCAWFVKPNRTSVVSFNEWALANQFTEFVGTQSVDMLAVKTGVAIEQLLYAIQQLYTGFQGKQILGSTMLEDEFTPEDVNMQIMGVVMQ
Chain of HCoV-229E 3CLpro (P0C6X1 2966-3267): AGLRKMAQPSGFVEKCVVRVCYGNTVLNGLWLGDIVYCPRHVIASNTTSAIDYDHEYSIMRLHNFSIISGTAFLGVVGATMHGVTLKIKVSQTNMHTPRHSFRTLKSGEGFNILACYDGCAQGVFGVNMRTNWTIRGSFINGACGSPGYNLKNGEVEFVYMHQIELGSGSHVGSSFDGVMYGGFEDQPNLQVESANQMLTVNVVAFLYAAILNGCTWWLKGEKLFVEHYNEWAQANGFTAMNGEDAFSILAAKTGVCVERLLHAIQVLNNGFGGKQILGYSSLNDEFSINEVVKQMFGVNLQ

SMILES	IC50 (SARS-CoV-2 3CLpro) [nM]	IC50 (HCoV-229E 3CLpro) [nM]	IC50 (MERS-CoV 3CLpro) [nM]	IC50 (SARS-CoV 3CLpro) [nM]
CCC(CC)[C@H](NC(=O)C1CC1)C(=O)N1C[C@@H]2CCC[C@@H]2[C@H]1C(=O)NN(C[C@@H]1CCCNC1=O)C(=O)[C@H](F)Cl [Example 171a, N-[(1S)-1-[(3S,3aS,6aR)-3-[[[(2R)-2-chloro-2-fluoro-acetyl]-[[(3S)-2-oxo-3-piperidyl]methyl]amino]carbamoyl]-3,3a,4,5,6,6a-hexahydro-1H-cyclopenta[c]pyrrole-2-carbonyl]-2-ethyl-butyl]cyclopropanecarboxamide]	8	94	130	17
CCC(CC)[C@H](NC(=O)C1CC1)C(=O)N1C[C@H]2[C@@H]([C@H]1C(=O)NN(C[C@@H]1CCCNC1=O)C(=O)[C@H](F)Cl)C2(C)C [Example 172, N-[(1S)-1-[(1R,2S,5S)-2-[[[(2R)-2-chloro-2-fluoro-acetyl]-[[(3S)-2-oxo-3-piperidyl]methyl]amino]carbamoyl]-6,6-dimethyl-3-azabicyclo[3.1.0]hexane-3-carbonyl]-2-ethyl-butyl]cyclopropanecarboxamide]	17	71	187	26
CCC(CC)[C@H](NC(=O)C(F)F)C(=O)N1C[C@H]2[C@@H]([C@H]1C(=O)NN(C[C@@H]1CCCNC1=O)C(=O)[C@H](F)Cl)C2(C)C [Example 173, N-[(1S)-1-[(1R,2S,5S)-2-[[[(2R)-2-chloro-2-fluoro-acetyl]-[[(3S)-2-oxo-3-piperidyl]methyl]amino]carbamoyl]-6,6-dimethyl-3-azabicyclo[3.1.0]hexane-3-carbonyl]-2-ethyl-butyl]-2,2-difluoro-acetamide]	13	27	175	18
CCC(CC)[C@H](NC(=O)C(F)F)C(=O)N1C[C@@H]2CCC[C@@H]2[C@H]1C(=O)NN(C[C@@H]1CCCNC1=O)C(=O)[C@H](F)Cl [Example 174, N-[(1S)-1-[(3S,3aS,6aR)-3-[[[(2R)-2-chloro-2-fluoro-acetyl]-[[(3S)-2-oxo-3-piperidyl]methyl]amino]carbamoyl]-3,3a,4,5,6,6a-hexahydro-1H-cyclopenta[c]pyrrole-2-carbonyl]-2-ethyl-butyl]-2,2-difluoro-acetamide]	10	29	123	12
CCC(C)(C)[C@H](NC(=O)C(F)F)C(=O)N1C[C@@H]2CCC[C@@H]2[C@H]1C(=O)NN(C[C@@H]1CCCNC1=O)C(=O)[C@H](F)Cl [Example 175, N-[(1S)-1-[(3S,3aS,6aR)-3-[[[(2R)-2-chloro-2-fluoro-acetyl]-[[(3S)-2-oxo-3-piperidyl]methyl]amino]carbamoyl]-3,3a,4,5,6,6a-hexahydro-1H-cyclopenta[c]pyrrole-2-carbonyl]-2,2-dimethyl-butyl]-2,2-difluoro-acetamide]	10	37	105	15
CC[C@H](C)[C@H](NC(=O)C(F)F)C(=O)N1C[C@H]2[C@@H]([C@H]1C(=O)NN(C[C@@H]1CCCNC1=O)C(=O)[C@H](F)Cl)C2(C)C [Example 176, N-[(1S,2S)-1-[(1R,2S,5S)-2-[[[(2R)-2-chloro-2-fluoro-acetyl]-[[(3S)-2-oxo-3-piperidyl]methyl]amino]carbamoyl]-6,6-dimethyl-3-azabicyclo[3.1.0]hexane-3-carbonyl]-2-methyl-butyl]-2,2-difluoro-acetamide]	11	28	96	16
CC1(C)[C@@H]2[C@@H](C(=O)NN(C[C@@H]3CCNC3=O)C(=O)[C@H](F)Cl)N(C(=O)c3cc(C(F)(F)F)cc(C(F)(F)F)c3)C[C@@H]21 [Example 177, (1R,2S,5S)-3-[3,5-bis(trifluoromethyl)benzoyl]-N′-[(2R)-2-chloro-2-fluoro-acetyl]-6,6-dimethyl-N′—[[(3S)-2-oxopyrrolidin-3-yl]methyl]-3-azabicyclo[3.1.0]hexane-2-carbohydrazide]	147	138	278	232

Source: patent publication US20250059171A1 (Hoffmann-La Roche Inc., priority 2021, published 2025)
